The values that follow come from patent US12459898B2, “Polycationic amphiphiles as antimicrobial agents and methods using same” (Temple University-Of The Commonwealth System of Higher …, priority 2016, dated 2025).

Converted amounts (≈) assume the structure as drawn.

Common to all, as to type: cell-based
The test system of data set [1] is methicillin-susceptible Staphylococcus aureus MSSA (SH1000). Description: Minimum inhibitory concentration (MIC), S. aureus. The conditions noted are these: MH media, 37° C., 72 hours, visual growth. The method, then: (§1) As used herein, the term “minimum inhibitory concentration (MIC)” refers to the lowest concentration of an antimicrobial agent that will inhibit the visible growth of a microorganism after overnight incubation. MIC values against bacteria, for example, the Gram-positive Staphylococcus aureus and Enterococcus faecalis and the Gram-negative Escherichia coli and Pseudomonas aeruginosa were determined by standard methods. See also P. A. Wayne, Methods for Dilution Antimicrobial Tests for Bacteria that Grow Aerobically; Approved Standard, Ninth Edition, 2012, CLSI Document M07-A9, Vol. 32 No. 2, which is incorporated by reference herein in its entirety.
(§2) For all biological assays, laboratory strains of methicillin-susceptible Staphylococcus aureus MSSA (SH1000), Enterococcus faecalis (OG1RF), Escherichia coli (MC4100), Pseudomonas aeruginosa (PAO1), community-acquired methicillin-resistant Staphylococcus aureus CA-MRSA (USA300-0114), and hospital-acquired methicillin-resistant Staphylococcus aureus HA-MRSA (ATCC 33591) were grown with shaking at 37° C. overnight from freezer stocks in 10 mL of the indicated media.
(§3) Compounds were serially diluted two-fold from stock solutions to yield twelve test concentrations. Overnight S. aureus, E. faecalis, E. coli, P. aeruginosa, USA300-0114 (CA-MRSA), and ATCC 33591 (HA-MRSA) cultures diluted to ca. 10^6 cfu/mL in MH media and 100 μL were inoculated into each well of a U-bottom 96-well plate (BD Biosciences, BD 351177) containing 100 μL of compound solution. Plates were incubated statically at 37° C. for 72 hours upon which time wells were evaluated visually for bacterial growth. The MIC was determined as the lowest concentration of compound resulting in no bacterial growth visible to the naked eye, based on the majority of three independent experiments. Aqueous DMSO controls were conducted as appropriate for each compound.

The subject of data set [2] is Escherichia coli (MC4100). Nature of the data set: Minimum inhibitory concentration (MIC), E. coli. As to conditions: MH media, 37° C., 72 hours, visual growth. The method, then:
as §1, §2, §3

The subject of data set [3] is hospital-acquired methicillin-resistant Staphylococcus aureus HA-MRSA (ATCC 33591). Description: microbe, parasite or virus in culture. As to conditions: for MIC: Staphylococcus aureus, 72 h, read-out: MIC, HA-MRSA. On the procedure:
as §1, §2, §3

For data set [4], the system named is community-acquired methicillin-resistant Staphylococcus aureus CA-MRSA (USA300-0114). Nature of the data set: Minimum inhibitory concentration (MIC), CA-MRSA. As to conditions: MH media, 37° C., 72 hours, visual growth. On the procedure: as §1, §2, §3
In data set [5] the test system is Pseudomonas aeruginosa (PAO1). Nature of the data set: Minimum inhibitory concentration (MIC), P. aeruginosa. The conditions noted are these: MH media, 37° C., 72 hours, visual growth. On the procedure:
as §1, §2, §3

Data set [6] has as its system Enterococcus faecalis (OG1RF). Nature of the data set: Minimum inhibitory concentration (MIC), E. faecalis. As to conditions: MH media, 37° C., 72 hours, visual growth. The method, then: as §1, §2, §3
The subject of data set [7] is red blood cells (mechanically defibrinated sheep blood). Nature of the data set: Red blood cell (RBC) lysis assay (Lysis20). As to conditions: for Lysis20 (highest concentration at which <20% of RBCs are lysed): sheep RBCs in PBS, 37° C., 1 hour, absorbance 540 nm, Table 1. The source says:
These assessments followed standard protocols (Minbiole et al., 2016, Tetrahedron, 72: 3559-3566, Forman et al., 2016, ChemMedChem, 11: 1401-1405, Forman et al., 2016, ChemMedChem, 11: 958-962, Mitchell et al., 2015, ChemBioChem, 16: 2299-2303, Jennings et al., 2015, ACS Inf. Dis, 1: 304-308, Paniak et al., 2014, Bioorg. Med. Chem. Lett, 24: 5824-5828, Ator et al., 2014, Bioorg. Med. Chem. Lett, 24: 3706-3709, Jennings et al., 2014, ChemBioChem, 15: 2211-2215, Black et al., 2014, Bioorg. Med. Chem. Lett, 24, 99-102, Grenier et al., 2012, Bioorg. Med. Chem. Lett, 22: 4055-4058).
RBC lysis assays were performed on mechanically defibrinated sheep blood (Hemostat Labs: DSB030). 1.5 mL of blood was placed into a microcentrifuge tube and centrifuged at 10,000 rpm for ten minutes. The supernatant was removed and the cells were resuspended with 1 mL of phosphate-buffered saline (PBS). The suspension was centrifuged as previously, the supernatant was removed, and cells were resuspended two more times. The final cell suspension was diluted twentyfold with PBS. The twentyfold suspension dilution was then aliquoted into microcentrifuge tubes containing compound serially diluted in PBS. TritonX (1% by volume) served as a positive control (100% lysis marker) and sterile PBS served as a negative control (0% lysis marker). Samples were then placed in an incubator at 37° C. and shaken at 200 rpm. After 1 hour, the samples were centrifuged at 10,000 rpm for ten minutes. The absorbance of the supernatant was measured with a UV spectrometer at a 540 nm wavelength.

In the case of `CCCCCCCCCCCCC[n+]1ccc(CCCc2cc[n+](CCCCCCCCCCCCC)cc2)cc1` [2Pyr-13,13], the MIC in data set [1] was 0.5 µM; in data set [2], 1 µM; in data set [3] it was 0.5 µM; in data set [4], 0.25 µM; in data set [5], 8 µM; in data set [6] it was 0.5 µM. The “Lysis20 (highest concentration at which <20% of RBCs are lysed)” value in data set [7] is reported as 16 μm.
`c1cc(CCCc2ccncc2)ccn1` [Compound 2Pyr, 1,3-di-(4-pyridyl)propane, reference compound]: the MIC in data set [1], in data set [2], in data set [3], in data set [4], in data set [5] and in data set [6] was over 250 µM in each case. Besides, the “Lysis20 (highest concentration at which <20% of RBCs are lysed)” value in data set [7] was over 250 μm.
As to `c1cc(CN(Cc2ccncc2)Cc2ccncc2)ccn1` [Compound P3Pyr, reference compound], the MIC in data set [1], in data set [2], in data set [3], in data set [4], in data set [5] and in data set [6] was over 250 µM each time. Moreover, the “Lysis20 (highest concentration at which <20% of RBCs are lysed)” value in data set [7] was 125 μm.
Regarding `CCCCCCCCCCCC[n+]1ccc(CCCc2cc[n+](CCCCCCCCCCCC)cc2)cc1` [2Pyr-12,12], the MIC was found to be 0.5 µM in data set [1]; 1 µM in data set [2]; 0.5 µM in data set [3]; 0.25 µM in data set [4]; 4 µM in data set [5]; 0.5 µM in data set [6]. Besides, in data set [7], the “Lysis20 (highest concentration at which <20% of RBCs are lysed)” value is on record as 4 μm. In addition, in data set [7] (sheep RBCs, values restated in text), the “lysis20 (hemolysis activity)” value came out at 4 µM.
As for `CCCCCCCCCCCCCC[n+]1ccc(CCCc2cc[n+](CCCCCCCCCCCCCC)cc2)cc1` [2Pyr-14,14], the MIC in data set [1] was 8 µM; in data set [2] it was 4 µM; in data set [3] it was 2 µM; in data set [4] it was 2 µM; in data set [5], 250 µM; in data set [6], 1 µM. Besides, the “Lysis20 (highest concentration at which <20% of RBCs are lysed)” value in data set [7] was determined as 63 μm.
As for `CCCCCCCC[n+]1ccc(CCCc2cc[n+](CCCCCCCC)cc2)cc1` [2Pyr-8,8], the MIC in data set [1] was 8 µM; in data set [2], 32 µM; in data set [3], 63 µM; in data set [4], 16 µM; in data set [5], over 250 µM; in data set [6], 63 µM. Also, in data set [3] (strain not given, Table 1 fits HA-MRSA vs S. aureus), the “antibacterial resistance (increase in MIC)” value stood at 8 fold. Besides, the “Lysis20 (highest concentration at which <20% of RBCs are lysed)” value in data set [7] is reported as 125 μm.
Consider `CCCCCCCCCCCCCCCC[n+]1cccc(CN(Cc2ccc[n+](CCCCCCCCCCCCCCCC)c2)Cc2ccc[n+](CCCCCCCCCCCCCCCC)c2)c1` [M3Pyr-16,16,16], for which the MIC is 2 µM in data set [1]; 125 µM in data set [2]; 2 µM in data set [3]; 4 µM in data set [4]; at least 250 µM in data set [5]; 8 µM in data set [6]. Also, in data set [7], the “Lysis20 (highest concentration at which <20% of RBCs are lysed)” value was 4 μm.
For `CCCCCCCCCCCCCC[n+]1cccc(CN(Cc2ccc[n+](CCCCCCCCCCCCCC)c2)Cc2ccc[n+](CCCCCCCCCCCCCC)c2)c1` [M3Pyr-14,14,14], the MIC in data set [1] worked out at 2 µM; in data set [2], 4 µM; in data set [3], 1 µM; in data set [4], 1 µM; in data set [5], 32 µM; in data set [6], 2 µM. Besides, in data set [7], the “Lysis20 (highest concentration at which <20% of RBCs are lysed)” value stood at 4 μm.
On to `CCCCCCCCCC[n+]1cccc(CN(Cc2ccc[n+](CCCCCCCCCC)c2)Cc2ccc[n+](CCCCCCCCCC)c2)c1` [M3Pyr-10,10,10], for which the MIC worked out at 0.5 µM in data set [1]; 1 µM in data set [2]; 0.5 µM in data set [3]; 0.5 µM in data set [4]; 2 µM in data set [5]; 1 µM in data set [6]. Also, in data set [7], the “Lysis20 (highest concentration at which <20% of RBCs are lysed)” value was found to be 4 μm.
Turning to `CCCCCCCC[n+]1cccc(CN(Cc2ccc[n+](CCCCCCCC)c2)Cc2ccc[n+](CCCCCCCC)c2)c1` [M3Pyr-8,8,8], the MIC in data set [1] was 2 µM; in data set [2], 8 µM; in data set [3] it was 2 µM; in data set [4] it was 1 µM; in data set [5], 32 µM; in data set [6], 8 µM. Also, the “Lysis20 (highest concentration at which <20% of RBCs are lysed)” value in data set [7] is over 250 μm.
For `CCCCCCCCCCCC[n+]1cccc(CN(Cc2ccc[n+](CCCCCCCCCCCC)c2)Cc2ccc[n+](CCCCCCCCCCCC)c2)c1` [M3Pyr-12,12,12], the MIC in data set [1] worked out at 1 µM; in data set [2] it was 1 µM; in data set [3], 1 µM; in data set [4], 0.5 µM; in data set [5], 8 µM; in data set [6] it was 1 µM. Also, the “Lysis20 (highest concentration at which <20% of RBCs are lysed)” value in data set [7] was 4 μm.
On to `CCCCCCCCCC[n+]1ccc(CCCc2cc[n+](CCCCCCCCCC)cc2)cc1` [2Pyr-10,10], for which the MIC amounted to 0.5 µM in data set [1]; 0.5 µM in data set [2]; 1 µM in data set [3]; 0.25 µM in data set [4]; 16 µM in data set [5]; 1 µM in data set [6]. The “Lysis20 (highest concentration at which <20% of RBCs are lysed)” value in data set [7] is recorded as 16 μm.
`CCCCCCCCCCCCC[n+]1cccc(CN(Cc2ccc[n+](CCCCCCCCCCCCC)c2)Cc2ccc[n+](CCCCCCCCCCCCC)c2)c1` [M3Pyr-13,13,13]: the MIC came out at 1 µM in data set [1]; 2 µM in data set [2]; 0.5 µM in data set [3]; 0.25 µM in data set [4]; 8 µM in data set [5]; 1 µM in data set [6]. Besides, the “Lysis20 (highest concentration at which <20% of RBCs are lysed)” value in data set [7] is recorded as 2 μm.
Consider `c1cncc(CN(Cc2cccnc2)Cc2cccnc2)c1` [Compound M3Pyr, reference compound], for which the MIC is 250 µM (≈ 72.6 µg/mL) in data set [1]; over 250 µM in data set [2]; 250 µM (≈ 72.6 µg/mL) in data set [3]; 250 µM (≈ 72.6 µg/mL) in data set [4]; over 250 µM in data set [5]; over 250 µM in data set [6]. Further, the “Lysis20 (highest concentration at which <20% of RBCs are lysed)” value in data set [7] is over 250 μm.
`CCCCCCCCCCC[n+]1cccc(CN(Cc2ccc[n+](CCCCCCCCCCC)c2)Cc2ccc[n+](CCCCCCCCCCC)c2)c1` [M3Pyr-11,11,11]: the MIC in data set [1] turned out to be 0.5 µM; in data set [2], 1 µM; in data set [3], 0.5 µM; in data set [4] it was 0.5 µM; in data set [5] it was 4 µM; in data set [6], 1 µM. Besides, the “Lysis20 (highest concentration at which <20% of RBCs are lysed)” value in data set [7] is recorded as 4 μm.
On to `CCCCCCCCCCCCCCCCCC[n+]1ccc(CCCc2cc[n+](CCCCCCCCCCCCCCCCCC)cc2)cc1` [2Pyr-18,18], for which the MIC in data set [1] is 8 µM; in data set [2], over 250 µM; in data set [3] it was 16 µM; in data set [4], 4 µM; in data set [5] it was over 250 µM; in data set [6] it was 8 µM. Also, in data set [7], the “Lysis20 (highest concentration at which <20% of RBCs are lysed)” value came to 32 μm.
